Experimental data published in US7494821B2, “Fluorescein based sensors for tracking nitric oxide in live cells” (Massachusetts Institute of Technology, priority 2005, dated 2009).

Tests used:
[1] = test system: mixture of Raw 264.7 and SK-N-SH cells; assay: NO imaging in Raw 264.7 and SK-N-SH co-culture; assay type: cell-based; conditions: 17β-estradiol (100 nM) and Cu(FL5) (1 μM) for 10 min
Procedure: FIG. 9 illustrates NO detection in SK-N-SH and Raw 264.7 cells by Cu(FL5). Cells were treated with Cu(FL5) (1 μM) and 17β-estradiol (500 nM) for 10 min. The media were subsequently removed and the cells washed with PBS. Images were taken with a Nikon Eclipse TS100 microscope.
The fluorescence response was also monitored in a mixture of Raw 264.7 and SK-N-SH cells grown on the same plate and co-treated with 17β-estradiol (100 nM) and Cu(FL5) (1 μM) for 10 min.

[2] = test system: SK-N-SH cells; assay: MTT cytotoxicity assay on SK-N-SH cells; assay type: cell-based, human
Procedure: To test the toxicity of Cu(FL5), a MTT [3-(4,5-dimethylthiazol-2-yl)-2,5-diphenyltetrazolium bromide] assay was performed on SK-N-SH cells after 5 days of incubation with Cu(FL5) (1 μM).
Thus, both Cu(FL5) and FL5−NO are not toxic under the conditions used here for bioimaging of NO.
(§1) Raw 264.7, SK-N-SH, and HeLa cells were purchased from the American Type Culture Collection (ATCC). All three cell lines were maintained in Dulbecco's modified Eagles' media (DMEM) (GibcoBRL) containing 10% (v/v) heat-inactivated fetal bovine serum (FBS) (HyClone), 1 mM sodium pyruvate (Sigma), 100 units/ml penicillin, 100 μg/ml streptomycin (Invitrogen), and 0.1 mM nonessential amino acid solution for minimal essential medium (Sigma). All cells were grown at 37° C. in a humidified atmosphere of 10% CO2. A nitrite assay was performed with Griess reagents (Promega) on Raw 264.7 cells grown in DMEM free of phenol red. Calcium sensor fluo-4 AM was purchased from Invitrogen. MTT [3-(4,5-dimethylthiazol-2-yl)-2,5-diphenyltetrazolium bromide] (Sigma-Aldrich) assay was described in Supplementary information. The expression of iNOS in Raw 264.7 cells was analyzed by Western blot on the extracts of cells stimulated by LPS and INF-γ. The protein was silenced by short hairpin RNA-induced RNAi and the resulting cell lines were used in fluorescence imaging by Cu(FL5).

[3] = Cell membrane passage in live cell studies; assay type: cell-based
From the text: In summary, we have synthesized a Cu(II)-based fluorescein compound Cu(FL5) for imaging NO based on redox chemistry. Reduction of Cu(FL5) by NO to Cu(I) with nitrosation of the FL5 ligand is accompanied by bright visible light emission. […] Studies of Cu(FL5) in pH 7.0 aqueous buffered solutions indicate that the NO response is direct, rapid, and specific.

[4] = Specificity for NO over other reactive nitrogen and oxygen species; conditions: 100 equivalents of O2−, ClO−, H2O2, HNO, NO2−, NO3−, ONOO−, 2 h, pH 7.0 buffer, 1 μM
Procedure: FIG. 6 illustrates the specificity of Cu(FL5) for NO over other reactive nitrogen and oxygen species. The fluorescence response of Cu(FL5) was determined after addition of 100 equivalents of O2^−, ClO^−, H2O2, HNO (Angeli's salt Na2N2O3), NO2^−, NO3^−, and ONOO^− for 2 h in buffered aqueous solution (50 mM PIPES, pH 7.0, 100 mM KCl). The excitation wavelength was 503 nm. All data (F) are normalized with respect to the emission of Cu(FL5) (F(Cu(FL5))). [Cu(FL5)]=1 μM. Error bars indicate s.d.
The fluorescence of a 1 μM FL5 solution was diminished by 18±3% upon introduction of an equimolar quantity of CuCl2 at 37° C. Addition of excess NO to a buffered aqueous Cu(FL5) solution led to an immediate 11.2±1.5-fold increase in fluorescence (FIG. 5). […] The lower detection limit for NO is 5 nM.

[5] = test system: iNOS; assay: iNOS expression in Raw 264.7 cells (Western blot); assay type: cell-based, murine; conditions: Raw 264.7 cells upon introduction of LPS and IFN-γ
Procedure: as §1

[6] = test system: HeLa cells; assay: Control imaging in HeLa cells; assay type: cell-based
Procedure: We investigated the ability of Cu(FL5) to detect NO produced in SK-N-SH human neuroblastoma cells under physiological conditions, since constitutive NO synthase (“cNOS”) in this cell line can be activated by estrogen to produce NO. Estrogen administration leads to an increase in the cytosolic Ca(II) concentration that alters the structure of calmodulin, which in turn activates cNOS. The NO-dependent fluorescence response, monitored after simultaneous administration of 17β-estradiol (100 nM) and Cu(FL5) (1 μM) to the cells, was completed within 5 min with a 4.0±0.6-fold increase in fluorescence (FIGS. 5a and b). […] As another control, HeLa cells were co-treated with 17β-estradiol (100 nM) and Cu(FL5) (1 μM).
To investigate further the origin of fluorescence detected by Cu(FL5), iNOS was silenced in Raw 264.7 cells by short hairpin RNA (shRNA)-induced RNA interference (RNAi) (FIG. 6b).
Raw 264.7, SK-N-SH, and HeLa cells were purchased from the American Type Culture Collection (ATCC). […] The expression of iNOS in Raw 264.7 cells was analyzed by Western blot on the extracts of cells stimulated by LPS and INF-γ. The protein was silenced by short hairpin RNA-induced RNAi and the resulting cell lines were used in fluorescence imaging by Cu(FL5).

[7] = test system: Raw 264.7 cells; assay: MTT cytotoxicity assay on Raw 264.7 cells; assay type: cell-based, murine; conditions: Cu(FL5) 1 μM, 5 days
Procedure: as §1

[8] = Quantum yield; assay type: physicochemical
From the text: Quantum yield may be obtained by comparison of the integrated area of the corrected emission spectrum of the sample with that of a reference solution. A preferred reference solution is a solution of fluorescein in 0.1 N NaOH, quantum efficiency 0.95. The concentration of the reference is adjusted to match the absorbance of the test sample. The quantum yields may be calculated using the following equation.
Upon addition of excess NO, a 499 nm peak in the UV-vis spectrum of Cu(FL5) in pH 7.0 buffered solution red-shifted back to the λmax characteristic of FL5 or the synthetic FL5−NO compound (504 nm), which differs from the band formed in the reaction of FL5 with 1 equivalent of Cu(I) added as [Cu(CH3CN)4](BF4) (506 nm). […] In addition, the spectrum of the NO reaction solution closely resembled that of the monoanionic fluorescein formed by lowering the pH from 7.0 to 5.0. […] These values are in the range previously reported for N-nitrosamines. The presence of two separate chemical shifts might arise from different isomers in solution, the Δδ of 2.29 being similar to that of previously reported of N-nitrosamines. […] Lastly, FL5−NO is brighter than FL5 or Cu(FL5), the respective quantum yields being ΦFL-NO=0.58±0.02 and ΦFL=0.077±0.002.

## Cc1ccc2cccc(NCc3c([O][Cu][Cl])ccc4c(-c5ccccc5C(=O)O)c5cc(Cl)c(=O)cc-5oc34)c2n1 [Cu(FL5)]
[1]
  fluorescence response in co-culture: fluorescence increase was observed exclusively in the SK-N-SH cells
[2]; 1 μM Cu(FL5), after 5 days
  viable cells (MTT), cell line not specified: > 80%
[2]; 5 days of incubation, Cu(FL5) 1 μM
  survival of SK-N-SH cells (MTT): 80±9%
[3]
  passage through cell membranes: readily passes through cell membranes
[4]
  fluorescence response specificity for NO over other reactive species: detects NO specifically
[5]
  effect on expression of iNOS: does not affect the expression of iNOS
[6]; 17β-estradiol (100 nM), Cu(FL5) (1 μM)
  fluorescence in HeLa cells co-treated with 17β-estradiol: absence of turn-on emission
[6]; LPS and IFN-γ prior to Cu(FL5) incubation
  turn-on fluorescence emission in HeLa cells treated with LPS and IFN-γ: not observed
[7]
  survival of Raw 264.7 cells (MTT): 90±3%

## Cc1ccc2cccc(NCc3c(O)ccc4c(-c5ccccc5C(=O)O)c5cc(Cl)c(=O)cc-5oc34)c2n1 [FL5, 2-{2-chloro-6-hydroxy-5-[(2-methyl-quinolin-8-ylamino)-methyl]-3-oxo-3H-xanthen-9-yl}-benzoic acid]
[8]
  quantum yield Φ: 0.077±0.002
